Reference: paper PMC6848912 (British Journal of Clinical Pharmacology, 2019)

Experiments:
[1] = Population pharmacokinetic analysis; assay type: in vivo
[2] = in combination with carboplatin + paclitaxel; cited from earlier work
[3] = Inc. data on file, cited from earlier work
[4] = cited from earlier work
[5] = concurrent administration of carboplatin + paclitaxel
[6] = nonparametric bootstrap of final PPK model

NS(=O)(=O)OC[C@@H]1C[C@@H](n2ccc3c(N[C@H]4CCc5ccccc54)ncnc32)C[C@@H]1O [pevonedistat, Pevonedistat]
average increase in pevonedistat exposure (AUC) [1, 5]: 79% | average increase in pevonedistat exposure (AUC), fold [1, 5]: 1.79 fold | impact of race, sex, age, tumour type, mild or moderate renal impairment (CrCL ≥30 mL/min), mild hepatic impairment on pevonedistat PK ([1]; covariate analysis): had no impact on pevonedistat PK | IIV_CL (interindividual variability), typical value ([1]; final PPK model): 36.6 %CV | IIV_Q, typical value ([1]; final PPK model): 60.5 %CV | IIV_Vc, typical value ([1]; final PPK model): 36.6 %CV | IIV_Vp, typical value ([1]; final PPK model): 36.9 %CV | Albumin on Q (exponent), typical value ([1]; final PPK model, (ALB/40)^θ13): 1.45 | BSA on Q (exponent), typical value ([1]; final PPK model, set the same as BSA on CL): 1.33 | BSA on Vp (exponent), typical value ([1]; final PPK model, set the same as BSA on Vc): 1.39 | BSA on Vc (exponent), typical value ([1]; final PPK model, set the same as BSA on Vp): 1.39 | Vd ([1]; human, plasma, intravenous): 117 L | Albumin on Q, bootstrap median [1, 6]: 1.45 | BSA on Q, bootstrap median [1, 6]: 1.33 | BSA on Vc, bootstrap median [1, 6]: 1.39 | BSA on Vp, bootstrap median [1, 6]: 1.39 | IIV_CL, bootstrap median [1, 6]: 35.9 %CV | IIV_Q, bootstrap median [1, 6]: 60.2 %CV | IIV_Vc, bootstrap median [1, 6]: 36.6 %CV | IIV_Vp, bootstrap median [1, 6]: 36.7 %CV | Q, bootstrap median [1, 6]: 22 L/h | Vc, bootstrap median [1, 6]: 115 L | Vp, bootstrap median [1, 6]: 121 L | maximum tolerated dose (MTD) / recommended Phase II dose [2]: 20 mg/m^2 | renal clearance contribution to total systemic clearance ([3]; ref Millennium Pharmaceuticals): < 5% | renal elimination pathway, share of total plasma clearance ([3]; ref Takeda Millennium Pharmaceuticals): 2.5% | dose linearity of PK (AUC from time 0 to 24 hours vs dose) ([4]; dose from 25 to 278 mg/m^2): linear | drug accumulation ([4]; once-daily dosing for 5 consecutive days or intermittent dosing): little or no notable drug accumulation
